# According to patent US12144792B2, “Therapeutic agents for neurodegenerative diseases” (priority 2016, dated 2024):
# Columns and labels:
# [1] = system: patients with ataxia telangiectasia; experiment: Case studies, SARA, SCAFI, visual analog scale and reports; assay type: in vivo, human
# Description: For example, to evaluate overall neurological status, mDRS, a four-domain scale (ambulation, manipulation, language and swallowing), may be applied. Cerebellar function may be evaluated using SARA, an eight-item clinical rating scale (gait, stance, sitting, speech, fine motor function and taxis; range 0-40, where 0 is the best neurological status and 40 the worst), and SCAFI, comprising the 8-m-Walking-Time (8MW; performed by having patients walking twice as quickly as possible from one line to another excluding turning), 9-Hole-Peg-Test (9HPT) and the number of “PATA” repetitions over 10 s. Subjective impairment and quality of life may be evaluated using the EQ-5D-5L questionnaire and VAS. To assess ocular motor function, 3-dimensional videooculography (EyeSeeCam) may be used to measure the peak velocity of saccades, gain of smooth pursuit, peak slow phase velocity of gaze-evoked nystagmus (gaze-holding function), peak slow phase velocity of optokinetic nystagmus, and gain of horizontal vestibulo-ocular reflex. To evaluate the cognitive state, WAIS-R or WISC-W, and MoCA, assessing different cognitive domains, including attention and concentration, executive functions, memory, language, visuoconstructional skills, conceptual thinking, calculations, and orientation with a maximum of 30 points and a cut-off score of 26, may be used. The skilled person will know how to perform these and other such tests.
# After one month of treatment, the patient was re-evaluated. […] Examination indicated a Scale for Assessment and Rating of Ataxia (SARA) score of 15.5/40. Results from the patient's Spinocerebellar Ataxia Functional Index (SCAFI) analysis were: • Mean 8-meters Walking Test (8MW): 18.5 s • MW 9-Hole Pegboard Test Dominant (9HPTD) (right): 77.9 s • MW 9-Hole Pegboard Test Non-Dominant (9HPTND): 101.3 s • MW PATA Word Test: 13 • Visual analog scale (as evaluated by the patient): 85
# After one month of treatment, the patient was re-evaluated. […] Examination indicated a Scale for Assessment and Rating of Ataxia (SARA) score of 23.5/40.
# After slightly over 7 months of treatment, the patient was re-evaluated. […] Examination indicated a Scale for Assessment and Rating of Ataxia (SARA) score of 21.5/40.
# After slightly over 1 month of treatment, the patient was re-evaluated. […] The patient also reported that drinking was easier and no longer needed a straw. […] Examination indicated a Scale for Assessment and Rating of Ataxia (SARA) score of 18.5/40.
# After about 1 month of treatment, the patient was re-evaluated. […] On medication, they were able to walk with only holding the caregiver's hand.
# The patient was evaluated after one month and six months of treatment, respectively. […] The patient, however, was suffering from anxiety, which would be expected to negatively influence the response.
# [2] = system: Npc1^−/− (BALB/cNctr-Npc1^m1N) mouse; experiment: Coat condition and disease indications by observation; assay type: in vivo
# Description: Separate groups of Npc1^-/- and Npc1^+/+ mice were left untreated, as controls.
# [3] = system: Mucopolysaccharidosis Type IIIB (MPS IIIB) patient fibroblasts; experiment: Lysosomal volume via LysoTracker; assay type: cell-based, human; details: 1 mM, 6 days, vs untreated
# [4] = system: AB variant of Tay-Sachs disease patient fibroblasts; experiment: Glycosphingolipid (GSL) levels via HPLC; assay type: cell-based, human; details: 1 mM for 6 days
# [5] = system: Hexb^−/− mouse (Sandhoff disease model); experiment: Bar crossing test; assay type: in vivo
# Description: This study made use of a mouse model of Sandhoff disease, the Hexb^−/− mouse, as described in Jeyakumar et al. (Jeyakumar, M. et al. (1999) Proc. Natl. Acad. Sci. USA 96: 6388-6393). The bar crossing test is a method for assessing motor function in mice in which the mouse is placed hanging from the centre of a horizontal bar by its front limbs. A wild-type mouse with normal motor function will be able to engage its hind limbs and thereby move to one of the platforms at either end of the bar, and in doing so complete the test. […] In FIG. 7B, acetyl-leucine treatment of 0.1 g/kg body weight was provided from 3 weeks of age. The acetyl-leucine treated Sandhoff mice retained the ability to complete the test up to 13 weeks of age (inclusive). Data shown is the mean of 6 mice per group. The treated Sandhoff mice retained the ability to complete the test up to 13 weeks of age (inclusive).
# Npc1^−/− mouse = experiment: Lifespan; assay type: in vivo; details: 0.1 g/kg from 3 weeks of age
# Description: Separate groups of Npc1^−/− and Npc1^+/+ mice were left untreated, as controls.
# [6] = system: patient with corticobasal syndrome; experiment: Case study, clinical examination; assay type: in vivo, human
# Method: Gait analysis was performed before treatment commenced. After 20 days of acetyl-leucine treatment, the patient was re-examined. […] After 8 weeks of acetyl-leucine treatment, medication was stopped and the patient was re-examined 6 days later.
# [7] = Ex. 15 Patient 2, after one month
# [8] = Ex. 15 Patient 3, after slightly over 7 months
# [9] = Ex. 15 Patient 4, after slightly over 1 month
# [10] = Ex. 15 Patient 5, after almost 7 months
compound,measurement,setting,value
CC(=O)NC(CC(C)C)C(=O)O (racemic) [acetyl-DL-leucine],caregivers' report,"[1]; Ex. 15 Patient 1, after one month",improvement of speech and gait
same,MW PATA Word Test,"[1]; Ex. 15 Patient 1, after one month, before 12.5",13
same,Mean 8-meters Walking Test (8MW),[1]; [7],not able to perform without support
same,caregivers' report,[1]; [7],"improvement of fine motor function, hand tremor, and speech"
same,MW PATA Word Test,"[1]; Ex. 15 Patient 2, after one month, before 13.5",14
same,MW 9-Hole Pegboard Test Non-Dominant (9HPTND),"[1]; Ex. 15 Patient 2, after one month, before 299.2 s",300 s
same,MW 9-Hole Pegboard Test Dominant (9HPTD) (right),"[1]; Ex. 15 Patient 2, after one month, before 300 s",300 s
same,Mean 8-meters Walking Test (8MW),[1]; [8],not able to perform
same,caregivers' and patient's report,[1]; [8],general improvement of well-being
same,MW PATA Word Test,"[1]; Ex. 15 Patient 3, after slightly over 7 months, before 14",10
same,Mean 8-meters Walking Test (8MW),[1]; [9],not able to perform
same,patient's and parent's report,[1]; [9],improvement in handwriting
same,mother's report,"[1]; Ex. 15 Patient 5, ataxia telangiectasia, 5 g/day, after about 1 month",significant improvement of stability of the gait
same,Mean 8-meters Walking Test (8MW),"[1]; Ex. 15 Patient 5, after about 1 month",not able to walk without support
same,MW PATA Word Test,"[1]; Ex. 15 Patient 5, after about 1 month, before 6",7.5
same,MW PATA Word Test,[1]; [10],11
same,mother's report,[1]; [10],significantly more stable gait
same,clinical re-evaluation,"[1]; Ex. 15 Patient 5, after slightly over a year","improved social interaction, activity, and agility"
same,symptoms,"[1]; Ex. 15 Patient 6, ataxia telangiectasia, 1.5 then 3 g/day, after one month",increased fine motor skills with reduced hand tremor
same,symptoms,"[1]; Ex. 15 Patient 6, after six months","stable general conditions, stable gait and stance, and improved handwriting"
same,onset of discernible indication of disease,"[2]; Npc1−/− mice treated from weaning, untreated show it from 5-6 weeks of age",did not display such symptoms until two or more weeks later
same,coat condition,"[2]; Npc1−/− mice, 0.1 g/kg in chow from weaning, nine weeks of age",smooth and glossy coat
same,LysoTracker fluorescence (lysosomal volume),[3],statistically significant reduction in LysoTracker fluorescence
same,GSL levels,[4],trend towards decreased GSL levels
same,age up to which the ability to complete the bar crossing test was retained,"[5]; Sandhoff mice, 0.1 g/kg from 3 weeks of age, inclusive",up to 13 weeks of age
same,motor function in bar-crossing test,"[5]; Sandhoff mouse, 0.1 g/kg body weight from 3 weeks of age",improved motor function and hind-limb mobility/engagement
same,lifespan,Npc1^−/− mouse,small but statistically significant increase in lifespan
same,dizziness and falls,"[6]; Ex. 10, corticobasal syndrome, 3 then 5 g per day, after 20 days",improvement of dizziness symptoms and significant reduction in the frequency of falls
same,symptoms after suspension,"[6]; Ex. 10, medication stopped after 8 weeks",increase of dizziness symptoms two days after suspension of treatment
